Source: ChEMBL document CHEMBL5236604, “Cage hydrocarbons as linkers in dimeric drug design: Case studies with trimethoprim and tedizolid” (2023)
In brackets after ≈: the same amount, converted by molar mass. Activity calls are given as the source filed them. The rule behind the calls is not given here.

test system: Enterococcus faecium; test: Antibacterial activity against trimethoprim sensitive Enterococcus faecium assessed as inhibition of bacterial growth; assay type: functional

Row | SMILES | MIC
1 | COc1cc(Cc2cnc(N)nc2N)cc(OC)c1OC [TRIMETHOPRIM] | 0.78 µM (≈ 0.226 µg/mL)
2 | COc1cc(Cc2cnc(N)nc2N)cc(OC)c1O [4-HYDROXYTRIMETHOPRIM] | 3.12 µM (≈ 0.863 µg/mL)
3 | COc1cc(Cc2cnc(N)nc2N)cc(OC)c1OC(=O)C12CC3CC(C1)CC(C(=O)Oc1c(OC)cc(Cc4cnc(N)nc4N)cc1OC)(C3)C2 | 6.25 µM (≈ 4.63 µg/mL)
4 | COc1cc(Cc2cnc(N)nc2N)cc(OC)c1OC(=O)C12CCC(C(=O)Oc3c(OC)cc(Cc4cnc(N)nc4N)cc3OC)(CC1)CC2 | 3.12 µM (≈ 2.23 µg/mL)
5 | COc1cc(Cc2cnc(N)nc2N)cc(OC)c1OC(=O)C12CC(C(=O)Oc3c(OC)cc(Cc4cnc(N)nc4N)cc3OC)(C1)C2 | 1.56 µM (≈ 1.05 µg/mL)

test system: Staphylococcus aureus; test: Antibacterial activity against trimethoprim resistant Staphylococcus aureus assessed as inhibition of bacterial growth; assay type: functional

Row | SMILES | MIC
6 | COc1cc(Cc2cnc(N)nc2N)cc(OC)c1OC [TRIMETHOPRIM] | 12.5 µM (≈ 3.63 µg/mL)
7 | COc1cc(Cc2cnc(N)nc2N)cc(OC)c1O [4-HYDROXYTRIMETHOPRIM] | > 25 µM
8 | COc1cc(Cc2cnc(N)nc2N)cc(OC)c1OC(=O)C12CC3CC(C1)CC(C(=O)Oc1c(OC)cc(Cc4cnc(N)nc4N)cc1OC)(C3)C2 | > 25 µM
9 | COc1cc(Cc2cnc(N)nc2N)cc(OC)c1OC(=O)C12CC(C(=O)Oc3c(OC)cc(Cc4cnc(N)nc4N)cc3OC)(C1)C2 | > 100 µM

test system: Enterococcus faecium; test: Antibacterial activity against trimethoprim resistant Enterococcus faecium assessed as inhibition of bacterial growth; assay type: functional

Row | SMILES | MIC
10 | COc1cc(Cc2cnc(N)nc2N)cc(OC)c1OC [TRIMETHOPRIM] | 100 µM (≈ 29 µg/mL)
11 | COc1cc(Cc2cnc(N)nc2N)cc(OC)c1O [4-HYDROXYTRIMETHOPRIM] | 60 µM (≈ 16.6 µg/mL)
12 | COc1cc(Cc2cnc(N)nc2N)cc(OC)c1OC(=O)C12CC3CC(C1)CC(C(=O)Oc1c(OC)cc(Cc4cnc(N)nc4N)cc1OC)(C3)C2 | 50 µM (≈ 37 µg/mL)
13 | COc1cc(Cc2cnc(N)nc2N)cc(OC)c1OC(=O)C12CCC(C(=O)Oc3c(OC)cc(Cc4cnc(N)nc4N)cc3OC)(CC1)CC2 | > 100 µM
14 | COc1cc(Cc2cnc(N)nc2N)cc(OC)c1OC(=O)C12CC(C(=O)Oc3c(OC)cc(Cc4cnc(N)nc4N)cc3OC)(C1)C2 | > 50 µM

test system: Staphylococcus aureus; test: Antibacterial activity against trimethoprim sensitive Staphylococcus aureus assessed as inhibition of bacterial growth; assay type: functional

Row | SMILES | MIC
15 | COc1cc(Cc2cnc(N)nc2N)cc(OC)c1OC [TRIMETHOPRIM] | 6.25 µM (≈ 1.81 µg/mL)
16 | COc1cc(Cc2cnc(N)nc2N)cc(OC)c1O [4-HYDROXYTRIMETHOPRIM] | 12.5 µM (≈ 3.45 µg/mL)
17 | COc1cc(Cc2cnc(N)nc2N)cc(OC)c1OC(=O)C12CC3CC(C1)CC(C(=O)Oc1c(OC)cc(Cc4cnc(N)nc4N)cc1OC)(C3)C2 | 12.5 µM (≈ 9.26 µg/mL)
18 | COc1cc(Cc2cnc(N)nc2N)cc(OC)c1OC(=O)C12CCC(C(=O)Oc3c(OC)cc(Cc4cnc(N)nc4N)cc3OC)(CC1)CC2 | > 100 µM
19 | COc1cc(Cc2cnc(N)nc2N)cc(OC)c1OC(=O)C12CC(C(=O)Oc3c(OC)cc(Cc4cnc(N)nc4N)cc3OC)(C1)C2 | 25 µM (≈ 16.8 µg/mL)

test system: Staphylococcus aureus; test: Antibacterial activity against Staphylococcus aureus; assay type: functional, organism-based

Row | SMILES | Activity
20 | CC(C)(C)[Si](C)(C)OC[C@H]1CN(c2ccc(O)c(F)c2)C(=O)O1 | inactive

test system: Enterococcus faecium; test: Antibacterial activity against Enterococcus faecium; assay type: functional, organism-based

Row | SMILES | Activity
21 | CC(C)(C)[Si](C)(C)OC[C@H]1CN(c2ccc(O)c(F)c2)C(=O)O1 | inactive

test system: Acinetobacter baumannii; test: Antibacterial activity against trimethoprim sensitive Acinetobacter baumannii assessed as inhibition of bacterial growth; assay type: functional

Row | SMILES | MIC
22 | COc1cc(Cc2cnc(N)nc2N)cc(OC)c1OC [TRIMETHOPRIM] | 6.25 µM (≈ 1.81 µg/mL)
23 | COc1cc(Cc2cnc(N)nc2N)cc(OC)c1O [4-HYDROXYTRIMETHOPRIM] | > 100 µM
24 | COc1cc(Cc2cnc(N)nc2N)cc(OC)c1OC(=O)C12CC3CC(C1)CC(C(=O)Oc1c(OC)cc(Cc4cnc(N)nc4N)cc1OC)(C3)C2 | > 100 µM
25 | COc1cc(Cc2cnc(N)nc2N)cc(OC)c1OC(=O)C12CCC(C(=O)Oc3c(OC)cc(Cc4cnc(N)nc4N)cc3OC)(CC1)CC2 | > 100 µM
26 | COc1cc(Cc2cnc(N)nc2N)cc(OC)c1OC(=O)C12CC(C(=O)Oc3c(OC)cc(Cc4cnc(N)nc4N)cc3OC)(C1)C2 | > 100 µM

test system: Acinetobacter baumannii; test: Antibacterial activity against trimethoprim resistant Acinetobacter baumannii assessed as inhibition of bacterial growth; assay type: functional

Row | SMILES | MIC
27 | COc1cc(Cc2cnc(N)nc2N)cc(OC)c1OC [TRIMETHOPRIM] | > 400 µM
